Laboratory results as given in the supplement of paper PMC11208160.

Assay: recombinant UMI read abundance after kanamycin selection (control-corrected) (log10(CPM+1)); higher = more efficient recombination; extreme values may be limits of the assay; sequences stand for … in AGTGCAGAGAAAATCGGCCAGTTTTCTCTGCCTGCAGTCCGCATGCCGTGGGACCCCTTGGGTTCTAACCTGTTGCCTAGATTTATGCAGCGGACTGCCTTTCTCCCAAAGTGATAAACCGG…AGGTTGGTTTCACT; site = the 11-nt donor
How it was run: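 Under IPTG (0.07 mM) plus kanamycin, or without selection, Escherichia coli carrying a UMI-tagged donor and donor-binding-loop pair library and a target plasmid for the IS621 bridge recombinase were plated in two replicates. Recombinant UMIs were PCR-amplified across the donor–target junction and sequenced. Counts were converted to CPM, averaged over replicates, scaled by control-derived factors and reported as log10(CPM+1).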
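Note: IS621 bridge recombinase in Escherichia coli cells against a fixed T5 target plasmid.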

| Sequence | recombinant UMI read abundance (log10) |
| --- | --- |
| CAGTTGTCATGGACCGGTTTTCCCGGTAATCCGTATTTGCG (site CAGTTGTCTCG) | 3.14 |
| CATAACCCATGGACCGGTTTTCCCGGTAATCCGTATTTGAT (site CATAACCCTAT) | 1.19 |
| CATAATCCATGGACCGGTTTTCCCGGTAATCCGTATTTGTT (site CATAATCCTAA) | 0.529 |
| CATAATCCATGGACCGGTTTTCCCGGTAATCCGTATTTGTT (site CGGAATCCTAA) | 0.00373 |
| CATAGCACATGGACCGGTTTTCCCGGTAATCCGTATTTGTA (site CATAGCACTTA) | 1.96 |
| CATATCCCATGGACCGGTTTTCCCGGTAATCCGTATTTGAC (site CATATCCCTGT) | 0.73 |
| CATCACACATGGACCGGTTTTCCCGGTAATCCGTATTTGGG (site CATCACACTCC) | 0.0249 |
| CATCGCCCATGGACCGGTTTTCCCGGTAATCCGTATTTGGT (site CATCGCCCTAC) | 0.296 |
| CATCTGACATGGACCGGTTTTCCCGGTAATCCGTATTTGCG (site CATCTGACTCG) | 1.45 |
| CATCTGTCATGGACCGGTTTTCCCGGTAATCCGTATTTGAC (site CATCTGTCTGT) | 0 |
| CATCTTGCATGGACCGGTTTTCCCGGTAATCCGTATTTGGT (site CATCTTGCTAC) | 0.825 |
| CATGACTCATGGACCGGTTTTCCCGGTAATCCGTATTTGTT (site CATGACTCTAA) | 2.08 |
| CATGCCTCATGGACCGGTTTTCCCGGTAATCCGTATTTGTG (site CATGCCTCTCA) | 1.43 |
| CATGGCTCATGGACCGGTTTTCCCGGTAATCCGTATTTGCG (site CATGGCTCTCG) | 2.15 |
| CATGTAACATGGACCGGTTTTCCCGGTAATCCGTATTTGCT (site AATGTAACTAG) | 0.624 |
| CATGTAACATGGACCGGTTTTCCCGGTAATCCGTATTTGCT (site CATGTAACTAG) | 2.28 |
| CATGTAACATGGACCGGTTTTCCCGGTAATCCGTATTTGCT (site GATGTAACTAG) | 0.28 |
| CATGTAACATGGACCGGTTTTCCCGGTAATCCGTATTTGCT (site TATGTAACTAG) | 0.869 |
| CATGTGTCATGGACCGGTTTTCCCGGTAATCCGTATTTGAC (site AATGTGTCTGT) | 0 |
| CATGTGTCATGGACCGGTTTTCCCGGTAATCCGTATTTGAC (site CATGTGTCTGT) | 0.602 |
| CATGTGTCATGGACCGGTTTTCCCGGTAATCCGTATTTGAC (site GATGTGTCTGT) | 0 |
| CATGTGTCATGGACCGGTTTTCCCGGTAATCCGTATTTGAC (site TATGTGTCTGT) | 0.00981 |
| CATGTTCCATGGACCGGTTTTCCCGGTAATCCGTATTTGTG (site CATGTTCCTCA) | 0.0131 |

| Sequence | recombinant UMI read abundance (log10) |
| --- | --- |
| CATTAGTCATGGACCGGTTTTCCCGGTAATCCGTATTTGTT (site CATTAGTCTAA) | 2.03 |
| CATTCAACATGGACCGGTTTTCCCGGTAATCCGTATTTGCC (site CATTCAACTGG) | 0.426 |
| CATTCCTCATGGACCGGTTTTCCCGGTAATCCGTATTTGCC (site CAATCCTCTGG) | 1.59 |
| CATTCCTCATGGACCGGTTTTCCCGGTAATCCGTATTTGCC (site CACTCCTCTGG) | 1.09 |
| CATTCCTCATGGACCGGTTTTCCCGGTAATCCGTATTTGCC (site CAGTCCTCTGG) | 0 |
| CATTCCTCATGGACCGGTTTTCCCGGTAATCCGTATTTGCC (site CATTCCTCTGG) | 1.47 |
| CATTCGACATGGACCGGTTTTCCCGGTAATCCGTATTTGCG (site CATTCGACTCG) | 0.32 |
| CATTGACCATGGACCGGTTTTCCCGGTAATCCGTATTTGAG (site CATTGACCTCT) | 0.0215 |
| CATTGCACATGGACCGGTTTTCCCGGTAATCCGTATTTGTA (site CATTGCACTTA) | 0.726 |
| CATTGGACATGGACCGGTTTTCCCGGTAATCCGTATTTGCC (site CATTGGACTGG) | 1.73 |
| CATTTATCATGGACCGGTTTTCCCGGTAATCCGTATTTGCA (site GCCCGTCCTAC) | 0.031 |
| CATTTATCATGGACCGGTTTTCCCGGTAATCCGTATTTGGC (site CATTTATCTGC) | 1.72 |
| CATTTCCCATGGACCGGTTTTCCCGGTAATCCGTATTTGCT (site CAATTCCCTAG) | 0.464 |
| CATTTCCCATGGACCGGTTTTCCCGGTAATCCGTATTTGCT (site CACTTCCCTAG) | 0.691 |
| CATTTCCCATGGACCGGTTTTCCCGGTAATCCGTATTTGCT (site CAGTTCCCTAG) | 0.0164 |
| CATTTCCCATGGACCGGTTTTCCCGGTAATCCGTATTTGCT (site CATTTCCCTAG) | 0.788 |
| CATTTGGCATGGACCGGTTTTCCCGGTAATCCGTATTTGTG (site AATTTGGCTCA) | 0.0432 |
| CATTTGGCATGGACCGGTTTTCCCGGTAATCCGTATTTGTG (site CATTTGGCTCA) | 0.552 |
| CATTTGGCATGGACCGGTTTTCCCGGTAATCCGTATTTGTG (site GATTTGGCTCA) | 0.00627 |
| CATTTGGCATGGACCGGTTTTCCCGGTAATCCGTATTTGTG (site TATTTGGCTCA) | 0.106 |
| CCAAACACATGGACCGGTTTTCCCGGTAATCCGTATTTGAT (site CCAAACACTAT) | 1.8 |
| CCAAAGGCATGGACCGGTTTTCCCGGTAATCCGTATTTGGC (site CCAAAGGCTGC) | 0 |
| CCAAATACATGGACCGGTTTTCCCGGTAATCCGTATTTGGC (site CCAAATACTGC) | 0 |

| Sequence | recombinant UMI read abundance (log10) |
| --- | --- |
| CCAAATACATGGACCGGTTTTCCCGGTAATCCGTATTTGGC (site CCCAATACTGC) | 0 |
| CCAAATACATGGACCGGTTTTCCCGGTAATCCGTATTTGGC (site CCGAATACTGC) | 0 |
| CCAAATACATGGACCGGTTTTCCCGGTAATCCGTATTTGGC (site CCTAATACTGC) | 0 |
| CCAAATCCATGGACCGGTTTTCCCGGTAATCCGTATTTGTT (site CCAAATCCTAA) | 0 |
| CCAAATCCATGGACCGGTTTTCCCGGTAATCCGTATTTGTT (site CGGAATCCTAA) | 0 |
| CCAACTTCATGGACCGGTTTTCCCGGTAATCCGTATTTGGA (site CCAACTTCTTC) | 0 |
| CCAAGCACATGGACCGGTTTTCCCGGTAATCCGTATTTGCT (site CCAAGCACTAG) | 0.32 |
| CCAAGGACATGGACCGGTTTTCCCGGTAATCCGTATTTGTT (site CCAAGGACTAA) | 0.865 |
| CCAAGGTCATGGACCGGTTTTCCCGGTAATCCGTATTTGTT (site CCAAGGTCTAA) | 2.12 |
| CCAAGTGCATGGACCGGTTTTCCCGGTAATCCGTATTTGAT (site CCAAGTGCTAT) | 1.57 |
| CCAAGTGCATGGACCGGTTTTCCCGGTAATCCGTATTTGAT (site CCACGTGCTAT) | 0.00443 |
| CCAAGTGCATGGACCGGTTTTCCCGGTAATCCGTATTTGAT (site CCAGGTGCTAT) | 0.02 |
| CCAAGTGCATGGACCGGTTTTCCCGGTAATCCGTATTTGAT (site CCATGTGCTAT) | 0 |
| CCAATATCATGGACCGGTTTTCCCGGTAATCCGTATTTGTC (site CCAATATCTGA) | 1.16 |
| CCAATATCATGGACCGGTTTTCCCGGTAATCCGTATTTGTC (site CCCATATCTGA) | 0.0129 |
| CCAATATCATGGACCGGTTTTCCCGGTAATCCGTATTTGTC (site CCGATATCTGA) | 0 |
| CCAATATCATGGACCGGTTTTCCCGGTAATCCGTATTTGTC (site CCTATATCTGA) | 1.27 |
| CCACACACATGGACCGGTTTTCCCGGTAATCCGTATTTGTA (site CCACACACTTA) | 1.15 |
| CCACACACATGGACCGGTTTTCCCGGTAATCCGTATTTGTA (site CCCCACACTTA) | 0.0104 |
| CCACACACATGGACCGGTTTTCCCGGTAATCCGTATTTGTA (site CCGCACACTTA) | 0.0104 |
| CCACACACATGGACCGGTTTTCCCGGTAATCCGTATTTGTA (site CCTCACACTTA) | 0.0109 |
| CCACATTCATGGACCGGTTTTCCCGGTAATCCGTATTTGAT (site CCACATTCTAT) | 0 |
